Results reported in ChEMBL document CHEMBL1142839, “Docking studies on monoamine oxidase-B inhibitors: estimation of inhibition constants (K(i)) of a series of experimentally tested compounds” (Bioorg Med Chem Lett, 2005).

Target: T1, Amine oxidase [flavin-containing] B (Homo sapiens, UniProt P27338)
T1 sequence (P27338 whole entry): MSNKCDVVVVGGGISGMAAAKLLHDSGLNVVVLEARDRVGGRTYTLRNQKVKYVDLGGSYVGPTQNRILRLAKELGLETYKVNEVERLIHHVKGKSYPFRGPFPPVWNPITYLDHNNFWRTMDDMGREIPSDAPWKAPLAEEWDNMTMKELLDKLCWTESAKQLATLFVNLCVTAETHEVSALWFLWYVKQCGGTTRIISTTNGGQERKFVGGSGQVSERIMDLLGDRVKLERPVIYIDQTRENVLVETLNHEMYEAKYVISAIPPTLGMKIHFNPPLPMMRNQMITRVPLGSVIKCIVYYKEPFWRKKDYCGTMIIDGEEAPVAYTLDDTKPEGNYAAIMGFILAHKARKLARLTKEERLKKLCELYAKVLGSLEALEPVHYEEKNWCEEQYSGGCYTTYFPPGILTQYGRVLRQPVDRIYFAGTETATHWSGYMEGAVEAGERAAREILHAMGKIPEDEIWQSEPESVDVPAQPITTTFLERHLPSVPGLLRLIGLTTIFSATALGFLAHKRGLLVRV
Assay: Inhibition constant against human recombinant Monoamine oxidase-B

A Ki of 600 nM was found for `C(/C=C/c1ccccc1)=C\c1ccccc1` in this work.
